PMC5494963 (Chemical research in toxicology, 2011)

Target: cytochrome c oxidase (complex IV) (Bos taurus, UniProt P00396)
Assay: spectrophotometric ferrocytochrome c oxidation at […] nm
Format: biochemical

S [sulfide]
Ki: 85 nM
